Test results taken from ChEMBL document CHEMBL1909046, “DrugMatrix in vitro pharmacology data”.

Experiments:
[1] = target: T1, Muscarinic acetylcholine receptor M4 (Homo sapiens, UniProt P08173); type: cell membranes, CHO-K1, Membrane; details: cho-k1; also: in other assays of this panel Not Active means under 50% inhibition at 10 µM
T1 sequence (P08173 whole entry): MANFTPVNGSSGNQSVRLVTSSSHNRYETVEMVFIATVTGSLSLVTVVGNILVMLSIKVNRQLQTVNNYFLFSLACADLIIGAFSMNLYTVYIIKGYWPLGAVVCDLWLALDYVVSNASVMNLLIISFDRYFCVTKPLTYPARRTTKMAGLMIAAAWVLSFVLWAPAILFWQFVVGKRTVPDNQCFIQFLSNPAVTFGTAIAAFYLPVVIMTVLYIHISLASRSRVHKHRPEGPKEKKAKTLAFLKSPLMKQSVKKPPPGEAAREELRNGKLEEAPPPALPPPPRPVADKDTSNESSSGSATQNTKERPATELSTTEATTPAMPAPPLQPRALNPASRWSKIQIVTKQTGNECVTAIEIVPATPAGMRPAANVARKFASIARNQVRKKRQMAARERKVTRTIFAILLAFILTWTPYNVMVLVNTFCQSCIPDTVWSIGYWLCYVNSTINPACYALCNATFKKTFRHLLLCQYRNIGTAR

[2] = DRUGMATRIX: Phorbol Ester radioligand binding (ligand: [3H] PDBu); type: cell membranes, Mus musculus, ICR, Brain, Membrane; details: Not Active = under 50% inhibition at 10 µM
[3] = target: Prostaglandin G/H synthase 1 (Homo sapiens, UniProt P23219); assay: biochemical; type: tissue-based, Platelet;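 also: inhibition of COX-1 enzyme activity, with arachidonic acid supplied as substrate; in other assays of this panel Not Active means under 50% inhibition at 10 µM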
Sequence of Prostaglandin G/H synthase 1 (P23219 whole entry): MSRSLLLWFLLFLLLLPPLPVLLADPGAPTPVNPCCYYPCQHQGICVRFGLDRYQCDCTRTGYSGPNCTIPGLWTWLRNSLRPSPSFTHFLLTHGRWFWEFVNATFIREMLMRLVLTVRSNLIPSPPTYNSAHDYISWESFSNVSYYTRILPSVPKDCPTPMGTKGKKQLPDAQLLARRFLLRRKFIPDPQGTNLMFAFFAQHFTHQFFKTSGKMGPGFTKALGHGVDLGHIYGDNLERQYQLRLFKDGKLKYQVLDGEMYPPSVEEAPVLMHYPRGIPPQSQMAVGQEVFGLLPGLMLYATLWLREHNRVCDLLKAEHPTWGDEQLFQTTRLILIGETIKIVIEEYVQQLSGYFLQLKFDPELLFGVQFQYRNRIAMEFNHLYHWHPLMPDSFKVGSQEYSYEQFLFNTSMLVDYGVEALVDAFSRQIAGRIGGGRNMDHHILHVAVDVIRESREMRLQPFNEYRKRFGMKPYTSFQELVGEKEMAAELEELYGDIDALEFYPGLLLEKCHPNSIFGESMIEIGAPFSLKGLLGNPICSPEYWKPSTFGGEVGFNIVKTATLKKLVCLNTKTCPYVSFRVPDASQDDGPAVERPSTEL

[4] = target: 5-hydroxytryptamine receptor 2B (Homo sapiens, UniProt P41595); type: cell membranes, CHO-K1, Membrane; also: in other assays of this panel Not Active means under 50% inhibition at 10 µM
Sequence of 5-hydroxytryptamine receptor 2B (P41595 whole entry): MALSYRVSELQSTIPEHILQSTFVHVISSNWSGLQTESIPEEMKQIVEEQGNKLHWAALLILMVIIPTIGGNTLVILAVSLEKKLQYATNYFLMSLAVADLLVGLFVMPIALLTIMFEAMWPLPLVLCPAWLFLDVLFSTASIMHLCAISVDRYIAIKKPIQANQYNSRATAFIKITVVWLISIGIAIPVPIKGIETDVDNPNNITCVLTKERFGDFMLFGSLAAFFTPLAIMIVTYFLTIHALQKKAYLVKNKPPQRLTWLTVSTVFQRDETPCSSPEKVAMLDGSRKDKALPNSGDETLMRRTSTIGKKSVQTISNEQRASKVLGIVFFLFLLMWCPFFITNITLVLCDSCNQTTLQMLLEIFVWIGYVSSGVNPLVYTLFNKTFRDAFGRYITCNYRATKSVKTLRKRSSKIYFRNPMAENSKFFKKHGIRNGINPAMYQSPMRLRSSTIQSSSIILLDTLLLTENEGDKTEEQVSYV

[5] = target: Mitogen-activated protein kinase 3 (Homo sapiens, UniProt P27361); assay: DRUGMATRIX: Protein Serine/Threonine Kinase, ERK1 enzyme inhibition (substrate: Myelin Basic Protein); parameters: species or system Escherichia coli; details: Not Active = under 50% inhibition at 10 µM
Sequence of Mitogen-activated protein kinase 3 (P27361 whole entry): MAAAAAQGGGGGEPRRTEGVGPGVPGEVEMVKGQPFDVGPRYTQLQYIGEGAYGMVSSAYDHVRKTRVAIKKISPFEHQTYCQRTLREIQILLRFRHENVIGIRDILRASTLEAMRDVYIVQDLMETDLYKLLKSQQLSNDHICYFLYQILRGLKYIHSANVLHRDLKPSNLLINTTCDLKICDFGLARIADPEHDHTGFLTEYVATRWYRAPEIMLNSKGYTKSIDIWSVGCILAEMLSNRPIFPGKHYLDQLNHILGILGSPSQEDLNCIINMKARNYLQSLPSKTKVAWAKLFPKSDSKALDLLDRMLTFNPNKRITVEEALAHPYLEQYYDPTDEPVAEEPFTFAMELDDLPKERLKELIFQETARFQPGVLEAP

[6] = target: Voltage-gated inwardly rectifying potassium channel KCNH2 (Homo sapiens, UniProt Q12809); details: hek293; also: in other assays of this panel Not Active means under 50% inhibition at 10 µM
Sequence of Voltage-gated inwardly rectifying potassium channel KCNH2 (Q12809 whole entry): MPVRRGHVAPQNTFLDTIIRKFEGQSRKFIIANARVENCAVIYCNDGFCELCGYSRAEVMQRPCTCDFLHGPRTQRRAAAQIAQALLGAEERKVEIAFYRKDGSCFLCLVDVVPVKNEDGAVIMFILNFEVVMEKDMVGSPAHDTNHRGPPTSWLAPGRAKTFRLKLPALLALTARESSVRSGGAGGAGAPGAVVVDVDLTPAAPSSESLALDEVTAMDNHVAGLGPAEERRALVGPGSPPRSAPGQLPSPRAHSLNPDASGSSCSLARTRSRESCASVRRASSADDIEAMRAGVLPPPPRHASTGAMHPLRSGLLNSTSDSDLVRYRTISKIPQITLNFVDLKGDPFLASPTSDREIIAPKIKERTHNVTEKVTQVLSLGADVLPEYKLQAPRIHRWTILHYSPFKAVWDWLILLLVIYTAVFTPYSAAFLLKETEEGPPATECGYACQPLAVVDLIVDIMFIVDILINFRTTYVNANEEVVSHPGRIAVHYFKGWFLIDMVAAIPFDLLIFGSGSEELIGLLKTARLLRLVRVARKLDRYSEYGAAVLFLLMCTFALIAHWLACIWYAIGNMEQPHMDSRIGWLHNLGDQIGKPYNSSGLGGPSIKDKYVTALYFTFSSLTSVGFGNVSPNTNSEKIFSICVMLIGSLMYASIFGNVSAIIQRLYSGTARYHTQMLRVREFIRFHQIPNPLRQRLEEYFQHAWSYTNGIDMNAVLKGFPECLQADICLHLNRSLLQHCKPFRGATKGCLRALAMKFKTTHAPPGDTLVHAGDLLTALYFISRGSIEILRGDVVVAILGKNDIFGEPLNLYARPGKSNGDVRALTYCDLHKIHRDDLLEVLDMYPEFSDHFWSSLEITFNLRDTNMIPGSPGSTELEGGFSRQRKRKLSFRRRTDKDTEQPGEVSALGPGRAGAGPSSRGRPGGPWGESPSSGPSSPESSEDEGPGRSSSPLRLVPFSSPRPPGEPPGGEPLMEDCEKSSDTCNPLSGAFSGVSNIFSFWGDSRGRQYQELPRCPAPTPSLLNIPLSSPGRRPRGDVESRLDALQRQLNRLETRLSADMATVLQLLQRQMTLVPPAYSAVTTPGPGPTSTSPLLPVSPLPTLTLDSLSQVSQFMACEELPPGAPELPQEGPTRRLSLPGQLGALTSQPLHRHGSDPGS

[7] = target: Matrix metalloproteinase-9 (Homo sapiens, UniProt P14780); assay: biochemical; type: cell-based
Sequence of Matrix metalloproteinase-9 (P14780 whole entry): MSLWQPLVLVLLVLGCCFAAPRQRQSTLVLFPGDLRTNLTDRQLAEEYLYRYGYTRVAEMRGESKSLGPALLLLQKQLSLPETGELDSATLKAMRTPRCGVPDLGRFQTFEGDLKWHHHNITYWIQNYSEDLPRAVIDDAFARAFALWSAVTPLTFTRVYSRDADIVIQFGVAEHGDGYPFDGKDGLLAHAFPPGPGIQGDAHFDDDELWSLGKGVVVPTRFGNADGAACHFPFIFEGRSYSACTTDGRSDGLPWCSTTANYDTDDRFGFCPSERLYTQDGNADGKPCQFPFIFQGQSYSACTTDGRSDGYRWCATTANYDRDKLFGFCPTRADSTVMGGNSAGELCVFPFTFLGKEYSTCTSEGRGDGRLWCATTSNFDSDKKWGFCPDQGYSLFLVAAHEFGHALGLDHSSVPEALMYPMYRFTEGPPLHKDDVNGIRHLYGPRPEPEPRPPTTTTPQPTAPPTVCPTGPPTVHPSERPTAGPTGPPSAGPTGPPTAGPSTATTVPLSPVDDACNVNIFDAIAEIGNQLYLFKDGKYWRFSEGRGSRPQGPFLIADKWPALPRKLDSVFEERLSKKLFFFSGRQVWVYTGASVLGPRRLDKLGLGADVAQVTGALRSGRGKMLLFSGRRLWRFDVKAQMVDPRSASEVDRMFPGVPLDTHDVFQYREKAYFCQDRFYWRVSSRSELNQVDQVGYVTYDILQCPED

| Molecule | IC50 [1] | IC50 [2] | Ki [2] | IC50 ([3]; platelet) | IC50 ([4]; cho-k1) | IC50 [5] | IC50 [6] | Ki [6] | IC50 [7] | IC50 ([4]; read-out: IC50) | Ki ([4]; read-out: Ki) | IC50 ([3]; read-out: IC50) | Ki ([4]; cho-k1) | IC50 ([7]; read-out: IC50) | Ki [1] | Ki ([3]; platelet) | Ki [5] | Ki [7] |
| --- | --- | --- | --- | --- | --- | --- | --- | --- | --- | --- | --- | --- | --- | --- | --- | --- | --- | --- |
| CC(=O)O[C@]1(C(C)=O)CC[C@H]2[C@@H]3C=C(C)C4=CC(=O)CC[C@]4(C)[C@H]3CC[C@@]21C [MEGESTROL ACETATE] | Not Active | Not Active | Not Active | Not Active | Not Active | Not Active | Not Active | Not Active | Not Active |  |  |  |  |  |  |  |  |  |
| CC(C)C[C@H]1C(=O)N2CCC[C@H]2[C@]2(O)O[C@](NC(=O)[C@@H]3C=C4c5cccc6[nH]c(Br)c(c56)C[C@H]4N(C)C3)(C(C)C)C(=O)N12 [BROMOCRIPTINE] | Not Active | Not Active | Not Active | Not Active |  | Not Active | Not Active | Not Active | Not Active | 0.00832 µM | 0.00529 µM |  |  |  |  |  |  |  |
| CC(=O)O[C@]1(C(C)=O)CC[C@H]2[C@@H]3C=C(Cl)C4=CC(=O)[C@@H]5C[C@@H]5[C@]4(C)[C@H]3CC[C@@]21C [CYPROTERONE ACETATE] | Not Active | Not Active | Not Active | Not Active | Not Active | Not Active | Not Active | Not Active | Not Active |  |  |  |  |  |  |  |  |  |
| CC(C)(Oc1ccc(C2CC2(Cl)Cl)cc1)C(=O)O (stereo not given) [CIPROFIBRATE] | Not Active | Not Active | Not Active | Not Active | Not Active | Not Active | Not Active | Not Active | Not Active |  |  |  |  |  |  |  |  |  |
| CC(C)(C)c1ccc(S(=O)(=O)/C=C/C#N)cc1 [BAY-11-7085] | Not Active | Not Active | Not Active | Not Active | Not Active | Not Active | Not Active | Not Active | Not Active |  |  |  |  |  |  |  |  |  |
| Cc1cccc(Nc2ccccc2C(=O)O)c1C [MEFENAMIC ACID] | Not Active | Not Active | Not Active |  | Not Active | Not Active | Not Active | Not Active | Not Active |  |  | 0.116 µM |  |  |  |  |  |  |
| NC[C@@H]1O[C@H](O[C@H]2[C@@H](O)[C@H](O[C@@H]3[C@@H](O)[C@H](N)C[C@H](N)[C@H]3O[C@H]3O[C@H](CN)[C@@H](O)[C@H](O)[C@H]3N)O[C@@H]2CO)[C@H](N)[C@@H](O)[C@@H]1O [FRAMYCETIN] | Not Active | Not Active | Not Active | Not Active |  | Not Active | Not Active | Not Active | Not Active |  |  |  | Not Active |  |  |  |  |  |
| O=C(O)c1cccnc1 [NIACIN] | Not Active | Not Active | Not Active | Not Active | Not Active | Not Active | Not Active | Not Active | Not Active |  |  |  |  |  |  |  |  |  |
| CC[C@]1(O)CC[C@H]2[C@@H]3CCC4=CCCC[C@@H]4[C@H]3CC[C@@]21C | Not Active | Not Active | Not Active | Not Active | Not Active | Not Active | Not Active | Not Active | Not Active |  |  |  |  |  |  |  |  |  |
| COc1cc(CNC(=O)CCCC/C=C/C(C)C)ccc1O [CAPSAICIN] | Not Active | Not Active | Not Active |  | Not Active | Not Active | Not Active | Not Active | Not Active |  |  | 1.55 µM |  |  |  |  |  |  |
| CN(C(=O)CCCOc1ccc2[nH]c(=O)ccc2c1)C1CCCCC1 [CILOSTAMIDE] | Not Active | Not Active | Not Active | Not Active | Not Active | Not Active | Not Active | Not Active | Not Active |  |  |  |  |  |  |  |  |  |
| CC(=O)OCC(CCn1cnc2cnc(N)nc21)COC(C)=O [FAMCICLOVIR] | Not Active | Not Active | Not Active | Not Active | Not Active | Not Active | Not Active | Not Active | Not Active |  |  |  |  |  |  |  |  |  |
| COC(=O)c1ccccc1O [METHYL SALICYLATE] | Not Active | Not Active | Not Active | Not Active | Not Active | Not Active | Not Active | Not Active | Not Active |  |  |  |  |  |  |  |  |  |
| C[C@H]([C@](O)(Cn1cncn1)c1ccc(F)cc1F)S(C)(=O)=O [GENACONAZOLE] | Not Active | Not Active | Not Active | Not Active | Not Active | Not Active | Not Active | Not Active | Not Active |  |  |  |  |  |  |  |  |  |
| Clc1cc2c(cc1Cl)Oc1cc(Cl)c(Cl)cc1O2 [2,3,7,8-TETRACHLORODIBENZO-P-DIOXIN] | Not Active | Not Active | Not Active | Not Active | Not Active | Not Active | Not Active | Not Active | Not Active |  |  |  |  |  |  |  |  |  |
| Nn1nnc2ccccc21 | Not Active | Not Active | Not Active | Not Active | Not Active | Not Active | Not Active | Not Active | Not Active |  |  |  |  |  |  |  |  |  |
| COc1ccccc1OCC(O)COC(N)=O (stereo not given) [METHOCARBAMOL] | Not Active | Not Active | Not Active | Not Active | Not Active | Not Active | Not Active | Not Active | Not Active |  |  |  |  |  |  |  |  |  |
| Cc1c(F)c(N2CCNC(C)C2)cc2c1c(=O)c(C(=O)O)cn2C1CC1 (stereo not given) [GREPAFLOXACIN] | Not Active | Not Active | Not Active | Not Active | Not Active | Not Active | Not Active | Not Active | Not Active |  |  |  |  |  |  |  |  |  |
| Oc1ccccc1O [CATECHOL] | Not Active | Not Active | Not Active | Not Active | Not Active | Not Active | Not Active | Not Active |  |  |  |  |  | 23.4 µM |  |  |  |  |
| O=P1(N(CCCl)CCCl)NCCCO1 (stereo not given) [CYCLOPHOSPHAMIDE ANHYDROUS] | Not Active | Not Active | Not Active | Not Active | Not Active | Not Active | Not Active | Not Active | Not Active |  |  |  |  |  |  |  |  |  |
| INSULIN HUMAN | Not Active | Not Active | Not Active | Not Active | Not Active | Not Active | Not Active | Not Active | Not Active |  |  |  | Not Active |  | Not Active | Not Active | Not Active | Not Active |
| CS(=O)(=O)OCCCCOS(C)(=O)=O [BUSULFAN] | Not Active | Not Active | Not Active | Not Active | Not Active | Not Active | Not Active | Not Active |  |  |  |  |  | 5.21 µM |  |  |  |  |
| CC(C)(CO)C(O)C(=O)NCCCO (stereo not given) [PANTHENOL] | Not Active | Not Active | Not Active | Not Active | Not Active | Not Active | Not Active | Not Active | Not Active |  |  |  |  |  |  |  |  |  |
| O=C(O)c1cc(=O)c2c(OCC(O)COc3cccc4oc(C(=O)O)cc(=O)c34)cccc2o1 [CROMOLYN] | Not Active | Not Active | Not Active | Not Active | Not Active | Not Active | Not Active | Not Active | Not Active |  |  |  |  |  |  |  |  |  |
| O=C(/C=C/c1ccc(O)c(O)c1)OCCc1ccccc1 [CAFFEIC ACID PHENETHYL ESTER] | Not Active | Not Active | Not Active |  | Not Active | Not Active | Not Active | Not Active | Not Active |  |  | 0.833 µM |  |  |  |  |  |  |
| Nc1nc(Cl)nc2c1ncn2[C@H]1C[C@H](O)[C@@H](CO)O1 [CLADRIBINE] | Not Active | Not Active | Not Active | Not Active | Not Active | Not Active | Not Active | Not Active | Not Active |  |  |  |  |  |  |  |  |  |
| CN1C[C@H](C(=O)N[C@]2(C)O[C@@]3(O)[C@@H]4CCCN4C(=O)[C@H](Cc4ccccc4)N3C2=O)C[C@@H]2c3cccc4[nH]cc(c34)C[C@H]21 [DIHYDROERGOTAMINE] | Not Active | Not Active | Not Active | Not Active |  | Not Active | Not Active | Not Active | Not Active | 0.0068 µM | 0.00433 µM |  |  |  |  |  |  |  |
